Results taken from patent US20100068150A1, “Selective Caspase Inhibitors” (The Board of Trustees of the Leland Stanford Junior …, priority 2006, published 2010).
Entries after “also recorded” stand apart in the source; their conditions may differ.

What was measured:
[1] = molecular target: T1, caspase-9 in 293 extracts (Homo sapiens, UniProt P55211); test: Intrinsic apoptosis assay in 293 extracts, KMB01 labeling of caspase-9; assay type: biochemical
T1 construct: endogenous in cells
Text: To further confirm our assignment of the labeled species we treated samples at various activation times with purified recombinant Bir3 domain of XIAP. This polypeptide specifically binds to and inhibits caspase-9 but not caspase-3 or 7. […] We cannot rule out the possibility that p33 caspase-9 is the result of cleavage by some other protease or itself after it has already been labeled by KMB01 or inhibited by Bir3.
Profiling of caspase activity in 293 extracts that had been treated with AB06 at the same time as cytochrome c/dATP confirmed the selectivity of our inhibitor. […]
To confirm that our inhibitor AB06 was not reducing caspase 9 activity resulting in slow processing of caspase-7 and accumulation of a partially processed intermediate we treated extracts with a range of AB06 concentrations and monitored caspase-9 inhibition at various time points after cytochrome c/dATP addition. […]
Hypotonic 293 or MCF-7 extracts (4.7 μg/μl total protein concentration; 73 μg of total protein per time point) were activated by addition of cytochrome c (100 uM final) and dATP (1 mM final) for a range of times from 0-240 minutes as indicated. […] A portion (13.5 μg total protein) from each time point was analyzed by SDS-PAGE using 10-20% gradient gels followed by blotting for biotin as described above. […]

[2] = system: mature downstream caspases (17-22 kDa) in 293 extracts; test: Intrinsic apoptosis assay in 293 extracts with AB06, KMB01 labeling of mature downstream caspases; assay type: biochemical; conditions: AB06 added at the same time as cytochrome c/dATP
Text: FIGS. 6 A-E illustrate that full-length active caspase-7 has unique inhibitor specificity and is processed to mature forms by downstream executioner caspases. (A) The caspase-3 specific inhibitor causes accumulation of a catalytically active full-length form of caspase-7. Cytosolic extracts from 293 cells were activated with cytochrome c/dATP for the indicated times followed by labeling with KMB01 (left panel) and western blotting with a caspase-7 specific antibody (right panel) as in FIG. 5A. […] (B) The exact same experiment as (A) except extracts from MCF-7 cells were used in place of 293 extracts. (**) indicates forms of caspase-7 that are likely a result of the alternative transcription start site at methionine-45 (C) Quantification of the relative activity of FL-C7 in uninhibited 293 extracts (from FIG. 5A), AB06 treated 293 extracts (from (A)) and uninhibited MCF-7 extracts (from (B)) (D) Inhibitor specificity of full-length and processed forms of caspase-7. Extracts (293) were activated for 5 min with cytochrome c/dATP and then incubated with NP-capped AOMK inhibitors containing the indicated primary amino acid sequences for 5 minutes before KMB01 was added and allowed to label residual caspase active sites for 30 minutes. Samples were analyzed by SDS-PAGE followed by biotin blotting using strepavidin-HRP (left panel) or western blotting for caspase-7 (right panel). […]

[3] = system: caspase-3, caspase-6, caspase-7, caspase-8, caspase-9; conditions: Kato et al., 2005; cited from earlier work
[4] = system: endogenous caspases in intact Jurkat cells; test: Direct labeling of endogenous caspase activity in live Jurkat cells; assay type: cell-based; conditions: anti-Fas or etoposide 15 h, probe 2 h; KMB01, bAB19 10 μM; bAB06, bAB13 1 μM

T1 sequence (P55211 1-315 limits assumed): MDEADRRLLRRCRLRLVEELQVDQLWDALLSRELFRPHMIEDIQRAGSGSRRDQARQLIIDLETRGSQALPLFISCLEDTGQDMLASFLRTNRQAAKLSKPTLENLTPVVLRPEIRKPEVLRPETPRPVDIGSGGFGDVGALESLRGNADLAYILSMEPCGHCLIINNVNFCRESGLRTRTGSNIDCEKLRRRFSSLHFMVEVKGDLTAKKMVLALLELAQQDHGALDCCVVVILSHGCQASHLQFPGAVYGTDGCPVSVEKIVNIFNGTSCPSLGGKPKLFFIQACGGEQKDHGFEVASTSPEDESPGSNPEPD
T1 sequence (P55211 331-416 limits assumed): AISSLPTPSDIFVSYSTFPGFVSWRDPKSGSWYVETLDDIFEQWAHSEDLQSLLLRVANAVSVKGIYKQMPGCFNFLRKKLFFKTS
T1 sequence (O14727 whole entry partner): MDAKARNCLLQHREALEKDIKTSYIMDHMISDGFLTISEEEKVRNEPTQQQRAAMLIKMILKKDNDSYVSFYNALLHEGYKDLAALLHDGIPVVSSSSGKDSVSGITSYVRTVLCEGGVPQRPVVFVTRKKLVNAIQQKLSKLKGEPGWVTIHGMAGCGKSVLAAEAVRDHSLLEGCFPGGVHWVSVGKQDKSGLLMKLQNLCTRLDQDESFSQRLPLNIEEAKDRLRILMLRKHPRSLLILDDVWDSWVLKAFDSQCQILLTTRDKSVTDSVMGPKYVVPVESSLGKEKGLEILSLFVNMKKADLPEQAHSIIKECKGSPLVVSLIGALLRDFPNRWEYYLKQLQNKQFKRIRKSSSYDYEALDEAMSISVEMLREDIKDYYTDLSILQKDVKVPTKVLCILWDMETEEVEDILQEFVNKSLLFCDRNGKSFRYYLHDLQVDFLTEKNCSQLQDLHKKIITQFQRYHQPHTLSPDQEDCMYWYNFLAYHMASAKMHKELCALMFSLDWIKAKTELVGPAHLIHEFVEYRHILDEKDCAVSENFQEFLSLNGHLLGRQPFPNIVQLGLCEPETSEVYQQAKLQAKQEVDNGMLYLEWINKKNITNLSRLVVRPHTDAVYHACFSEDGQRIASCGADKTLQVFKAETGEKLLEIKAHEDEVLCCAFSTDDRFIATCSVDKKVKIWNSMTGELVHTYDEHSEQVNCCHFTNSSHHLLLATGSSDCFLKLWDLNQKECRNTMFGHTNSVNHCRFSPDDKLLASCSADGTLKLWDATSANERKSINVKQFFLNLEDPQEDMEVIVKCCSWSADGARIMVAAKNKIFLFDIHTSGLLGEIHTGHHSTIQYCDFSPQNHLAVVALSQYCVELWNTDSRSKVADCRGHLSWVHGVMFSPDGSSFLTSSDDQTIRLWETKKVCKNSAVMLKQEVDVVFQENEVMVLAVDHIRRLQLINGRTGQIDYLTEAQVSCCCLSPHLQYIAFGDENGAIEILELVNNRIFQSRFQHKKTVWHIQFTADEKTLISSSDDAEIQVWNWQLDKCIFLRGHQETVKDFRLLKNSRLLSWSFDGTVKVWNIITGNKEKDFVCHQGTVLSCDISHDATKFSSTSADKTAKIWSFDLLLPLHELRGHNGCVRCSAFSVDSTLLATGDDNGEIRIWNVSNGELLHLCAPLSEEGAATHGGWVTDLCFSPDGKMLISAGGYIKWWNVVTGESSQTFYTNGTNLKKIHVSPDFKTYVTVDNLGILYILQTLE
T1 sequence (P99999 2-105 partner limits assumed): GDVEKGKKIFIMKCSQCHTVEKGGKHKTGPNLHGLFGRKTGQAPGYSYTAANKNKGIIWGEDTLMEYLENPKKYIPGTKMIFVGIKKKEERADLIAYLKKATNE

| Compound | KMB01 labeling of processed forms of caspase-9 and precursor forms of caspase-7 ([1]; AB06 added at the same time as cytochrome c/dATP) | cross reactivity with caspase-9 ([1]; range of AB06 concentrations, as high as 10 μM for up to 30 minutes) | KMB01 labeling of mature downstream caspases [2] | labeling of caspases by probe [3] | labeling of endogenous caspases in intact cells [4] |
| --- | --- | --- | --- | --- | --- |
| Cc1cccc(C)c1C(=O)OCC(=O)[C@H](CC(=O)O)NC(=O)[C@@H](NC(=O)[C@H](Cc1ccncc1)NC(=O)[C@H](CC(=O)O)NC(=O)Cc1ccc(O)c([N+](=O)[O-])c1)C(C)C [AB06, Np-D-3-V-D-DMBA] | unaltered | lack of cross reactivity | completely blocked |  |  |
| Bio-EVD-AOMK [KMB01, reference compound] |  |  |  | robust labeling of caspase-9 as well as caspase-3, caspase-7 and caspase-8 | robust labeling of downstream caspases-3 and 7; also recorded: did not show labeling of caspase-9 |
